Molecules are shown by their SMILES.

The nature of the first experiment: Neuroprotective activity against cobalt chloride-induced neurotoxicity in rat NGF-differentiated PC12 cells assessed as increase of neurite-bearing cell level at 60 uM after 12 hrs.
Conditions: not given
Turning to `COc1ccc(/C=C/C(=O)OCc2nc(C)c(C)nc2C)c(OC)c1OC`, the Activity is reported as 50.8%.

Another experiment can be described thus: Neuroprotective activity against cobalt chloride-induced neurotoxicity in rat differentiated PC12 cells. The conditions noted are these: pc-12. It is filed as functional, cell-based.
As to `COc1ccc(OC)c(/C=C/C(=O)OCc2nc(C)c(C)nc2C)c1`, the half-maximal effective concentration (EC50) was < 24 µM.
Same read-out and setting: with `COc1cc(/C=C/C(=O)OCc2nc(C)c(C)nc2C)cc(OC)c1OC` the figure was < 24 µM; with `COc1ccc(/C=C/C(=O)OCc2nc(C)c(C)nc2C)cc1OC`, < 24 µM; with `Cc1nc(C)c(COC(=O)c2cc(OCc3nc(C)c(C)nc3C)c(OCc3nc(C)c(C)nc3C)c(OCc3nc(C)c(C)nc3C)c2)nc1C`, > 100 µM.
On the same count and under the same terms, under `COc1cccc(/C=C/C(=O)OCc2nc(C)c(C)nc2C)c1OC` stands < 24 µM.
On the same count and under the same terms, with `COc1ccc(C(C)=O)c(OCc2nc(C)c(C)nc2C)c1` the figure was < 15 µM; with `COc1cccc(/C=C/C(=O)OCc2nc(C)c(C)nc2C)c1`, < 24 µM.
The molecule `COc1ccc(/C=C/C(=O)OCc2nc(C)c(C)nc2C)c(OC)c1OC` returned an EC50 of 0.719 µM.
In the case of `COc1ccccc1/C=C/C(=O)OCc1nc(C)c(C)nc1C`, the EC50 is < 24 µM.
Still for that read-out and setting: with `C=CCc1ccc(OCc2nc(C)c(C)nc2C)c(OC)c1` the figure was 4.62 µM; with `COc1ccc(/C=C/C(=O)OCc2nc(C)c(C)nc2C)cc1`, < 24 µM.

These data come from ChEMBL document CHEMBL3751825, “Synthesis and protective effect of new ligustrazine derivatives against CoCl2-induced neurotoxicity in differentiated PC12 cells. Part 2” (Medchemcomm, 2015).
